Read-outs that look alike come from different tables or passages of the source.
Columns and labels:
[1] = target: Recombinant human FGFR1 (Homo sapiens, UniProt P11362); test: Transcreener Kinase Assay of FGFR1; assay type: biochemical
Procedure: (§1) • 1. […] Prepare Solution • Test compounds were solved in DMSO and were diluted with assay buffer to 5 folds of final concentration keeping the DMSO concentration at 5%. Further dilution are needed to make final concentrations are at 1, 0.33, 0.11, 0.037, 0.012, 0.004, 0.0014, 0.0005 μM; (the final concentration of DMSO is 1%). • Enzyme/Substrate stock Preparation: Recombinant human FGFR1 and Poly E4Y are both diluted in assay buffer.
• 3. Enzymatic Reaction • In a 96-well plate, add 5 μL of diluted solution of test compound or control solution. (positive control: 5 μL of 5% DMSO; negative control: 5 μL of 500 mM EDTA) into desired wells respectively; • Add 10 μL of Enzyme/Substrate stock into each well; • Add 10 μL of ATP Diluents to initiate the enzyme reaction and vortex the plate immediately on a plate shaker; • For the wells to make standard curve, add 5 μL of 5% DMSO, 10 μL of assay buffer and 10 μL of ATP standard curve stock. • Incubate the plate for 45 min at 28° C. on a plate shaker in a low speed. • 4. […] Excitation wavelength: 610 nm, Emission wavelength: 670 nm. • 5. Data Analysis
(§2) [formula] Note: • [ADP] in Compound well represents the ADP concentration in test compound well. • [ADP] in Positive control well represents the ADP concentration in 5% DMSO well • Conversion of mP value to ADP concentration is calculated based on the formula which determined by standard curve. And mP value is measured by following the instruction provided by BellBrook Labs. (www.bellbrooklabs.com). • 6. IC50: determined with add-in software for Microsoft Excel, XLfit™ (version 2.0) from ID Business Solutions (Guildford, UK).

[2] = target: Recombinant human FGFR2 (Homo sapiens, UniProt P21802); test: Transcreener Kinase Assay of FGFR2; assay type: biochemical
Sequence of Recombinant human FGFR2 (P21802 22-821): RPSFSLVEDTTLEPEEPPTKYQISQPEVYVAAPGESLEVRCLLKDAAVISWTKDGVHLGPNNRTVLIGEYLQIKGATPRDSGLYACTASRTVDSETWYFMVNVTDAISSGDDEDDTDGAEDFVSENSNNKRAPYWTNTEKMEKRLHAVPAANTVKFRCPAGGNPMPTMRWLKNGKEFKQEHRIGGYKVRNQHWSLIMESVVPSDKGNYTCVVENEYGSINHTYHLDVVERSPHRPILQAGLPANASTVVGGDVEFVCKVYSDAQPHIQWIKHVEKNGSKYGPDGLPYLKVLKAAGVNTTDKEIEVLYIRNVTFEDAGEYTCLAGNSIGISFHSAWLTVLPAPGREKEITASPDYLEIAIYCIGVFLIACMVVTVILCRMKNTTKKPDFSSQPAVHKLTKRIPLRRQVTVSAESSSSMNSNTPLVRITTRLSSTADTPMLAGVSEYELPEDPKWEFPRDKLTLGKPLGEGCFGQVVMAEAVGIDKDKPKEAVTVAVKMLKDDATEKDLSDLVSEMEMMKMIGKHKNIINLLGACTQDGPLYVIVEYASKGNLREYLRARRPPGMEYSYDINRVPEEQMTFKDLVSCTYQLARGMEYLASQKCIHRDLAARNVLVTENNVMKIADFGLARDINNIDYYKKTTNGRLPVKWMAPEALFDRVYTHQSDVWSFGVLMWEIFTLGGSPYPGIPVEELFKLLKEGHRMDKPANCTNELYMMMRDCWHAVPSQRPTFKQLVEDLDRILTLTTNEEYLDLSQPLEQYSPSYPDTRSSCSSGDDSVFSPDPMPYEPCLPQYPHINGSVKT
Procedure: Example 24: Transcreener Kinase Assay of FGFR2
as §1, with “FGFR2” for “FGFR1”, “buffer. The final concentration is 0.3 ng/μL for FGFR2 and 62.5 ng/μL for Poly E4Y. The mixture is being kept in ice before use; • Prepare ATP Diluents, 10 mM ATP is diluted in assay buffer, the final concentration is 25 μM; • Prepare ADP Diluents: diluted ADP (500 μM) in assay buffer, the final concentration is 25 μM; • Prepare ATP standard curve stock as following:” for “buffer.”
• 3. Enzymatic Reaction • In a 96-well plate, add 5 μL of deluted solution of test compound or control solution. (positive control: 5 μL of 5% DMSO; negative control: 5 μL of 500 mM EDTA) into desired wells respectively; • Add 10 μL of Enzyme/Substrate stock into each well; • Add 10 μL of ATP Diluents to initiate the enzyme reaction and vortex the plate immediately on a plate shaker; • For the wells to make standard curve, add 5 μL of 5% DMSO, 10 μL of assay buffer and 10 μL of ATP standard curve stock. • Incubate the plate for 45 min at 28° C. on a plate shaker in a low speed. • 4. Stoping Reaction and Detecting ADP • Detection Mix Preparation: The mixture is made by dilution with MilliQ water; as following: ADP Alexa633 tracer (1:100), ADP antibody (1:158), and stop & detect buffer (1:10); • Tracer Only control Preparation: The mixture is made by dilution with MilliQ water; as following: ADP Alexa633 tracer (1:100), and stop & detect buffer (1: 10) • No Tracer control Preparation: stop & detect buffer is diluted with MilliQ water; by 10 fold. • Add 25 μL of detection mix, Tracer Only control and No Tracer control into corresponding wells, respectively; • Incubate at 28° C. for 1 h, on a plate shaker in a low speed; • Measure florescence polarization (mP) on TECAN F500. Excitation wavelength: 610 nm, Emission wavelength: 670 nm. • 5. Data Analysis
as §2

[3] = target: FGFR3 kinase (Homo sapiens, UniProt P22607); test: Z-Lyte Kinase Assay of FGFR3; assay type: biochemical
Sequence of FGFR3 kinase (P22607 23-806): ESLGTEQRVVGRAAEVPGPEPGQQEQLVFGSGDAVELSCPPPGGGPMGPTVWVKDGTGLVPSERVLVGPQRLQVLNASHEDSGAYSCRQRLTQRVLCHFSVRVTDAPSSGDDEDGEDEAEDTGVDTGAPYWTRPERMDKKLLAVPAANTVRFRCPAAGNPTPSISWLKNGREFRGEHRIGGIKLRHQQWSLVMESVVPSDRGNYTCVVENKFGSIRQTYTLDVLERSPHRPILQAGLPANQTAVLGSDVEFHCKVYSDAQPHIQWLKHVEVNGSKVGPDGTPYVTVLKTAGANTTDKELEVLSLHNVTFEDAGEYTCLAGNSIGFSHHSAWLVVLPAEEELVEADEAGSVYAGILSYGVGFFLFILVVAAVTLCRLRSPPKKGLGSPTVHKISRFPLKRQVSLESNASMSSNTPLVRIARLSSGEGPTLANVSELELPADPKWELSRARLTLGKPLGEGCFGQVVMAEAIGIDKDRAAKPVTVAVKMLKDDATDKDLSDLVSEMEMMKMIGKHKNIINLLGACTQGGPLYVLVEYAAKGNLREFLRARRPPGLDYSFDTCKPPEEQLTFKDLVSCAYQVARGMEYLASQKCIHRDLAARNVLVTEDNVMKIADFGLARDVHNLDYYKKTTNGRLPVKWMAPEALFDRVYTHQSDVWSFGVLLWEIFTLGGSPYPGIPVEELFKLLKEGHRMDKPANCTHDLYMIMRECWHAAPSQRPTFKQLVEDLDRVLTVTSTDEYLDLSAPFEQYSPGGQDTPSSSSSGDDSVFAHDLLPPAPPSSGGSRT
Procedure: Example 25: Z-Lyte Kinase Assay of FGFR3
• 1. Materials and Reagents:
• 2. Reaction Steps: Plate Map
• 3. […] The final concentrations are 1, 0.33, 0.11, 0.037, 0.012, 0.004, 0.0014, 0.00046 μM, and the final concentration of DMSO is 2%. • 3) Kinase/Peptide Mixture (P/K solution): Prepare Kinase/Peptide Mixture by diluting the kinase to 0.7 μg/ml and the Z-LYTE™ Tyr 4 peptide to 4 μM in 1.33× Kinase Buffer. Mix gently by pipetting. • 4) Phospho-peptide Solution (PP solution): Add 0.4 μl of Z-LYTE™ Tyr 4 Phospho-peptide to 99.6 μl of 1.33× Kinase Buffer. • 5) ATP Solution: Prepare ATP Solution by diluting the 10 mM of ATP in 1.33× Kinase Buffer to 300 uM. • 6) Development Solution: Dilute Development Reagent B with Development Buffer as 1:128. • 4. […] Shake the plate for 30 Sec and centrifuge (1500 rpm, 1 min). • Seal the plate to protect from the light and incubate the plate for 1 hour at RT (25-30° C.). • 2) Development reaction • Add 5 μl of the Development solution to all wells. • Shake the plate for 30 Sec and centrifuge (1500 rpm, 1 min). • Seal the plate to protect from the light and incubate the plate for 1 hour at RT (25-30° C.). • 3) Stop and Read • Add 5 μl of the Stop reagent to all wells. • Shake the plate for 30 Sec and centrifuge (1500 rpm, 1 min). • Measure the value of Coumarin (Ex400 nm, Em445 nm) and fluorescein (Ex400 nm, Em520 nm), respectively. • 5. Data Analysis Emission Ratio(ER)=Coumarin Emission (445 nm)/Fluorescein Emission (520 nm) % Phosphorylation=1−[ER×C3520nm-C3445nm]/[(C1445nm-C3445nm)+ER×(C3520nm−C1520nm)] Inhibition rate (IR)=1−% Photest Cpd/% PhoC2 • 6. IC50 Value: determined with add-in software for Microsoft Excel, XLfit™ (version 2.0) from ID Business Solutions (Guildford, UK)

[4] = test system: KG-1; test: Cellular Proliferation Assay (Cell Counting Kit-8), KG-1; assay type: cell-based; settings: Homo sapiens; KG-1 cells, 72 hours; read-out: KG1 IC50
Procedure: (§3) Example 26: Cellular Proliferation Assay
(§4) • 1. Cell Line • KG-1 (ATCC Accession No. CCL-246), • SNU-16 (ATCC Accession No. CRL-5974), • RT-112 (ECACC Accession No. 85061106) • 2. Assay Protocol • FGFR related cancer cell proliferation is measured in 96-well plates using Cell Counting Kit-8 (Dojindo CK04-13). • Seed 30000 cells/well of KG1, 5000 cells/well of SNU16, and 1000 cells/well of RT112 in a volume of 100 μL/well in growth media. • After 24 hours, dilute the test compound to 10, 3.3, 1.1, 0.37, 0.12, 0.04, 0.013, 0.004 μM, keeping the DMSO concentration at 5%. • Add 10 μL of 8-point compound series to the wells of culturing cells. • Incubate at 37° C. and 5% CO2 for 72 hours • Add 10 μL/well of CCkit8 and incubate at 37° C. and 5% CO2 for an hour • Detect the optical density of each well at 450 nm on Labsystems Multiskan K3. • 3. Data Analysis
(§5) [formula] Note: • ODcompound well represents the optical density of cells treated with compound. • ODcell well represents the optical density of cells without compounds treatment.(only 0.5% DMSO) • ODcontrol well represents the optical density of culture media background • IC50: determined with add-in software for Microsoft Excel, XLfit™ (version 2.0) from ID Business Solutions (Guildford, UK).

[5] = test system: SNU-16; test: Cellular Proliferation Assay (Cell Counting Kit-8), SNU-16; assay type: cell-based; settings: Homo sapiens; SNU-16 cells, 72 hours
Procedure: as §3, §4, §5

[6] = test system: RT-112; test: Cellular Proliferation Assay (Cell Counting Kit-8), RT-112; assay type: cell-based; settings: Homo sapiens; RT-112 cells, 72 hours
Procedure: as §3, §4, §5

Sequence of Recombinant human FGFR1 (P11362 22-822): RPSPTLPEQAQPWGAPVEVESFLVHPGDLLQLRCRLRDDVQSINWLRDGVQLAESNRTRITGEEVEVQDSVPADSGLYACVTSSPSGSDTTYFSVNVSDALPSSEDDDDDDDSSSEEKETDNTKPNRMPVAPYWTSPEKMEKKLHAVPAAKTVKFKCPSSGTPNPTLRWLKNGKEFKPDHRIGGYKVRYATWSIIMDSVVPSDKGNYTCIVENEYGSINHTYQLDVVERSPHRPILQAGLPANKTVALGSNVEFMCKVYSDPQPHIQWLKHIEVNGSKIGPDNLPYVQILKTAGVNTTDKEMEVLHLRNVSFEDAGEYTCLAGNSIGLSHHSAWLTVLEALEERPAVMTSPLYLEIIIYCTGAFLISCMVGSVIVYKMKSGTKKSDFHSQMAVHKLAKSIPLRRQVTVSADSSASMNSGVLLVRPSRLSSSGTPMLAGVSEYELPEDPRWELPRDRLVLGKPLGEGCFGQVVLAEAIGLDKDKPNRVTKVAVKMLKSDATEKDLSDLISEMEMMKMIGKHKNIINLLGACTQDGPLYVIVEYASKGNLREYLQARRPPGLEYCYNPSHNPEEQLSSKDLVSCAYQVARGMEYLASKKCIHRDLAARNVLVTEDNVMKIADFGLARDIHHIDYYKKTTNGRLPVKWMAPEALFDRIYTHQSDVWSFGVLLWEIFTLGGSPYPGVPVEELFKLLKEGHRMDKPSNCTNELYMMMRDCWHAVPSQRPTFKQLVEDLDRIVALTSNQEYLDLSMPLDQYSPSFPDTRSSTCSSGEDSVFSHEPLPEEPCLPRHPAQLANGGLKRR

Row | Structure (SMILES) | IC50 ([1]; read-out: FGFR1 (FP) IC50) [nM] | IC50 ([2]; read-out: FGFR2 (FP) IC50) [nM] | IC50 [3] [nM] | IC50 [5] [nM] | IC50 ([1]; FP) [nM] | IC50 ([2]; FP) [nM] | IC50 ([3]; Z-lyte) [nM] | IC50 [4] [nM] | IC50 [6] [nM]
1 | CNC(=O)c1cc(COc2cnc(Nc3ccc(N4C[C@@H]5CCN(C)[C@@H]5C4)c(OC)c3)nc2)c(F)c(OC)c1 [Compound 293] |  |  |  |  | 18 | 8 | 11 |  | 
2 | CNC(=O)c1cc(COc2cnc(Nc3cccc(OC)c3)nc2)c(F)c(OC)c1 [Compound 212] | 26 | 16 | 80 | 14 |  |  |  | 59 | 57
3 | CNC(=O)c1cc(CCc2cnc(Nc3cnn([C@@H]4CCOC4)c3)nc2)c(F)c(OC)c1 [Compound 136] | 10 | 7 |  |  |  |  |  | 29 | 166
4 | CNC(=O)c1cc(CCc2cnc(Nc3cnn(CC(F)(F)F)c3)nc2)c(F)c(OC)c1 [Compound 35] |  | 10 |  |  |  |  |  |  | 
5 | CNC(=O)c1cc(CCc2cnc(Nc3cccc(N4C[C@@H](C)N[C@@H](C)C4)c3)nc2)cc(OC)c1 [Compound 12] |  |  |  | 266 |  |  |  |  | 
6 | CCOc1cc(CCc2cnc(Nc3ccc(N4CCN(CC)CC4)cc3)nc2)cc(C(=O)NOC)c1 [Compound 50] |  |  |  | 581 |  |  |  | 387 | 
7 | CNC(=O)c1cc(COc2cnc(Nc3ccc(N4C[C@@H](C)N[C@@H](C)C4)nc3)nc2)c(F)c(OC)c1 [Compound 257] |  |  |  |  |  |  |  | 103 | 
8 | CNC(=O)c1cc(CCc2cnc(Nc3cnn([C@H]4CCOC4)c3)nc2)c(F)c(OC)c1 [Compound 137] | 9 | 5 | 13 | 18 |  |  |  |  | 
9 | CNC(=O)c1cc(COc2cnc(Nc3ccc(C4CCNCC4)c(OC)c3)nc2)c(F)c(OC)c1 [Compound 258] | 28 | 15 | 17 |  |  |  |  |  | 
10 | CCn1cc(Nc2ncc(/C=C/c3cc(C(=O)NC)cc(OC)c3Br)cn2)cn1 [Compound 3] | 28 | 28 | 188 |  |  |  |  |  | 
11 | CNC(=O)c1cc(COc2cnc(Nc3ccc(N4CCN(C5CCCC5)CC4)c(OC)c3)nc2)c(F)c(OC)c1 [Compound 302] |  |  |  |  | 12 | 7 | 9 |  | 

Now from value to molecule, other results behind:

Row | IC50 ([1]; read-out: FGFR1 (FP) IC50) [nM] | IC50 ([2]; read-out: FGFR2 (FP) IC50) [nM] | IC50 [3] [nM] | IC50 [5] [nM] | IC50 ([1]; FP) [nM] | IC50 ([2]; FP) [nM] | IC50 ([3]; Z-lyte) [nM] | Structure (SMILES) | IC50 [4] [nM] | IC50 [6] [nM]
12 | 31 | 21 | 19 | 31 |  |  |  | CCCN1CC(c2ccc(Nc3ncc(OCc4cc(C(=O)NC)cc(OC)c4F)cn3)cn2)C1 [Compound 241] | 162 | 112
13 |  |  |  | 11 | 6 | 6 | 8 | CNC(=O)c1cc(OC)c(Cl)c(COc2cnc(Nc3ccc(N4C[C@@H](C)N[C@@H](C)C4)c(F)c3)nc2)c1F [Compound 299] | 7 | 15
14 | 101 | 32 | 45 | 14 |  |  |  | CNC(=O)c1cc(COc2cnc(Nc3ccc4c(c3)NC(=O)C4(C)C)nc2)c(F)c(OC)c1 [Compound 230] | 76 | 26
15 | 23 | 8 | 25 | 20 |  |  |  | CNC(=O)c1cc(COc2cnc(Nc3cccc(S(C)(=O)=O)c3)nc2)c(F)c(OC)c1 [Compound 227] | 35 | 85
16 |  |  |  |  | 14 | 6 | 5 | CNC(=O)c1cc(COc2cnc(Nc3ccc(N4CCN(C5CC5)CC4)c(OC)c3)nc2)c(F)c(OC)c1 [Compound 294] |  | 
17 | 28 | 14 | 9 |  |  |  |  | CNC(=O)c1cc(COc2cnc(Nc3ccc(C4CCNCC4)nc3)nc2)c(F)c(OC)c1 [Compound 236] |  | 
18 | 17 | 10 | 8 |  |  |  |  | CNC(=O)c1cc(COc2cnc(Nc3cnn(C[C@H](O)CO)c3)nc2)c(F)c(OC)c1 [Compound 220] |  | 
19 | 14 | 10 | 8 |  |  |  |  | CNC(=O)c1cc(COc2cnc(Nc3cnn(C[C@@H](O)CO)c3)nc2)c(F)c(OC)c1 [Compound 219] |  | 
20 | 7 | 5 | 6 |  |  |  |  | CCN1CCN(c2ccc(Nc3ncc(CCc4cc(C(=O)NC)cc(OC)c4F)cn3)cc2OC)CC1 [Compound 157] |  | 
21 | 99 | 87 | 132 |  |  |  |  | CCN1CC[C@H](n2cc(Nc3ncc(CCc4cc(C(=O)NC)cc(OC)c4F)cn3)cn2)C1 [Compound 191] |  | 
